Reference: US9878986B2, “Compounds for selective histone deacetylase inhibitors, and pharmaceutical composition comprising the same” (CHONG KUN DANG PHARMACEUTICAL CORP., priority 2013, dated 2018)

Legend:
[1] = target: HDAC1 (Homo sapiens, UniProt Q13547); test: Test of HDAC activities, HDAC1 Fluorimetric Drug Discovery Assay Kit; format: biochemical; set-up: purchased Enzolifesciences BML-AK511; conditions: samples at 100, 1000, 10000 nM; 37° C. 60 minutes; fluorescence Ex 390, Em 460; read-out: HDAC inhibitory activities, HDAC1
Experimental: (§1) The HDAC inhibitory activities of test materials were measured using the HDAC1 Fluorimetric Drug Discovery Assay Kit (Enzolifesciences: BML-AK511) and HDAC6 human recombinant (Calbiochem: 382180). In the HDAC1 assay, the samples were treated with concentrations of 100, 1000, and 10000 nM, and in the HDAC6 assay, the samples were treated with concentrations of 0.1, 1, 10, 100, and 1000 nM. After the treatment of the samples, the samples were reacted at 37° C. for 60 minutes, treated with a developer, and then reacted at 37° C. for 30 minutes. Then, the fluorescence intensity (Ex 390, Em 460) was measured using the FlexStation 3 (Molecular device).

[2] = target: T1, HDAC 6 (Homo sapiens, UniProt Q9UBN7); test: Test of HDAC activities, HDAC6 (fluorimetric); format: biochemical; set-up: purchased Calbiochem 382180; conditions: samples at 0.1, 1, 10, 100, 1000 nM; 37° C. 60 minutes; fluorescence Ex 390, Em 460; read-out: HDAC inhibitory activities, HDAC6
T1 sequence (Q9UBN7 1-1215): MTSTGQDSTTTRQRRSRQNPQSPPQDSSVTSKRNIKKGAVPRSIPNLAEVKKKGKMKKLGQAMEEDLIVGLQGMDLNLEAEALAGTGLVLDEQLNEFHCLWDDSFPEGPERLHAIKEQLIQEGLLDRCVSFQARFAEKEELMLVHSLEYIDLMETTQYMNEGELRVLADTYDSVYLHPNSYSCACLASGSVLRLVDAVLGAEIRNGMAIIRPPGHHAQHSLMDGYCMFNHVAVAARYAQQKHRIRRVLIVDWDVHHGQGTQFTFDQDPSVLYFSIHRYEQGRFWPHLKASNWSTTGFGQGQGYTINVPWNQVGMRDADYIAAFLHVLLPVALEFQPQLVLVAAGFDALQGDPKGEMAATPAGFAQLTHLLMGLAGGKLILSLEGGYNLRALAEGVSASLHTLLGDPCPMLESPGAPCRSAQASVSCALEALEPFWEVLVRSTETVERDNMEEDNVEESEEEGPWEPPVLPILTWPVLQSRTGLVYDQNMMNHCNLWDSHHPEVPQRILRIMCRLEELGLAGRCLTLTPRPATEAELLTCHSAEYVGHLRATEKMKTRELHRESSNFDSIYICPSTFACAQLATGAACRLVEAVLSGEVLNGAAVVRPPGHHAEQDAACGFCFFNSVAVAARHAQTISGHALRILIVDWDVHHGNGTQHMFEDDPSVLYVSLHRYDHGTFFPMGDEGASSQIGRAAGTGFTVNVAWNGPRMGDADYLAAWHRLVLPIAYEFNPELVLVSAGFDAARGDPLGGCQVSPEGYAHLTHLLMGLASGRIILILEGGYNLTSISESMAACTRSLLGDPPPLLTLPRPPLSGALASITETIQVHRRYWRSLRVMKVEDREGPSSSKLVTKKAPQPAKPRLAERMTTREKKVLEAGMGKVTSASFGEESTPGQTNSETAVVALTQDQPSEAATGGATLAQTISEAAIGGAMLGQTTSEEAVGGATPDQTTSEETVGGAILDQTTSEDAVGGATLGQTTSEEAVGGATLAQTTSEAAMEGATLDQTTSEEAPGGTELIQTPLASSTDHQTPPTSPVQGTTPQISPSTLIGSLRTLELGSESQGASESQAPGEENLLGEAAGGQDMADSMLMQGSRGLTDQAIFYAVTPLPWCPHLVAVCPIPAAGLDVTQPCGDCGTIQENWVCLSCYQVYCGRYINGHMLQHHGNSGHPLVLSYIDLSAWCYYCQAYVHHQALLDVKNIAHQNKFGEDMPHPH
Experimental: as §1

HDAC1, sequence (Q13547 whole entry): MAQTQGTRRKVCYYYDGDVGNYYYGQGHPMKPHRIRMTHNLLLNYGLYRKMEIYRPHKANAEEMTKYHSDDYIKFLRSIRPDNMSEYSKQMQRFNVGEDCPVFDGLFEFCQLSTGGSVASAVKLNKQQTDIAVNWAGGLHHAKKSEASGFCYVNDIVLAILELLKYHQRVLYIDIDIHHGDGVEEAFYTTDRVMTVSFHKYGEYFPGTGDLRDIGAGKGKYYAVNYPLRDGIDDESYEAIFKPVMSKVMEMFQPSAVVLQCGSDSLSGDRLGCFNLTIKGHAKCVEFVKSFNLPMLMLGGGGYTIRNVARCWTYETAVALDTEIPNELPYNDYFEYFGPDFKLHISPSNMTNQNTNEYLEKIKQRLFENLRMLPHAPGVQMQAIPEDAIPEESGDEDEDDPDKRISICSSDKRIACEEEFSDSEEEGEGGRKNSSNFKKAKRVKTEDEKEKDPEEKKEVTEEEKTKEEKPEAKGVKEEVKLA

IC50 [1] [nM]	IC50 [2] [nM]	SMILES
636	12	O=C(NO)c1ccc(CN(C(=O)N2CCOCC2)c2cccc(-c3ccc4c(c3)OCO4)c2)c(F)c1 [Compound 511, N-(3-(benzo[d][1,3]dioxol-5-yl)phenyl)-N-(2-fluoro-4-(hydroxycarbamoyl)benzyl)morpholine-4-carboxamide]
170	3	O=C(NO)c1ccc(CN(C(=O)N2CCOCC2)c2cccc(-c3ccoc3)c2)cc1 [Compound 402, N-(3-(furan-3-yl)phenyl)-N-(4-(hydroxycarbamoyl)benzyl)morpholine-4-carboxamide]
447	9	O=C(NO)c1ccc(CN(C(=O)N2CCN(CCN3CCOCC3)CC2)c2ccc(C(F)(F)F)cc2)cc1 [Compound 543, N-(4-(hydroxycarbamoyl)benzyl)-4-(2-morpholinoethyl)-N-(4-(trifluoromethyl)phenyl)piperazine-1-carboxamide]
1980	6	Cc1ccc(N(Cc2ccc(C(=O)NO)cc2)C(=O)N2CCN(c3ccc(F)cc3)CC2)c(F)c1 [Compound 455, N-(2-fluoro-4-methylphenyl)-4-(4-fluorophenyl)-N-(4-(hydroxycarbamoyl)benzyl)piperazine-1-carboxamide]
1220	5	CC1CN(C(=O)N(Cc2ccc(C(=O)NO)cc2)c2ccc(F)cc2F)CC(C)O1 (stereo not drawn) [Compound 415, N-(2,4-difluorophenyl)-N-(4-(hydroxycarbamoyl)benzyl)-2,6-dimethylmorpholine-4-carboxamide]
838	3	CC(C)(F)CN1CCN(C(=O)N(Cc2ccc(C(=O)NO)cc2)c2cccc(CF)c2)CC1 [Compound 766, 4-(2-fluoro-2-methylpropyl)-N-(3-(fluoromethyl)phenyl)-N-(4-(hydroxycarbamoyl)benzyl)piperazine-1-carboxamide]
261	10	O=C(NO)c1ccc(CN(C(=O)N2CC[C@H](F)C2)c2ccc(C(F)(F)F)cc2)cc1 [Compound 521, (S)-3-fluoro-N-(4-(hydroxycarbamoyl)benzyl)-N-(4-(trifluoromethyl)phenyl)pyrrolidine-1-carboxamide]
545	17	O=C(NO)c1ccc(CN(C(=O)N2CCN(CC(=O)N3CCOCC3)CC2)c2ccc(C(F)(F)F)cc2)cc1 [Compound 545, N-(4-(hydroxycarbamoyl)benzyl)-4-(2-morpholino-2-oxoethyl)-N-(4-(trifluoromethyl)phenyl)piperazine-1-carboxamide]
7830	37	O=C(NO)c1ccc(CN(C(=O)N2CCCCC2)c2ccc(Cl)c(C(F)(F)F)c2)cc1 [Compound 389, N-(4-chloro-3-(trifluoromethyl)phenyl)-N-(4-(hydroxycarbamoyl)benzyl)piperidine-1-carboxamide]
3820	4	COc1ccccc1N1CCN(C(=O)N(Cc2ccc(C(=O)NO)cc2)c2ccccn2)CC1 [Compound 356, N-(4-(hydroxycarbamoyl)benzyl)-4-(2-methoxyphenyl)-N-(pyridin-2-yl)piperazine-1-carboxamide]
4980	19	COc1cccc(N2CCN(C(=O)N(Cc3ccc(C(=O)NO)cc3)c3cccc(C(F)(F)F)c3)CC2)c1 [Compound 684, N-(4-(hydroxycarbamoyl)benzyl)-4-(3-methoxyphenyl)-N-(3-(trifluoromethyl)phenyl)piperazine-1-carboxamide]
1260	2	CC(C)NC(=O)N1CCC(c2cccc(N(Cc3ccc(C(=O)NO)cc3)C(=O)N3CCOCC3)c2)CC1 [Compound 492, N-(4-(hydroxycarbamoyl)benzyl)-N-(3-(1-(isopropylcarbamoyl)piperidin-4-yl)phenyl)morpholine-4-carboxamide]
3500	16	CN1CC=C(c2cccc(N(Cc3ccc(C(=O)NO)cc3)C(=O)N3CCOCC3)c2)CC1 [Compound 404, N-(4-(hydroxycarbamoyl)benzyl)-N-(3-(1-methyl-1,2,3,6-tetrahydropyridin-4-yl)phenyl) morpholine-4-carboxamide]
1220	0.5	CC(C)(C)OC(=O)N1CCC(c2cccc(N(Cc3ccc(C(=O)NO)cc3)C(=O)N3CCOCC3)c2)CC1 [Compound 489, tert-butyl 4-(3-(N-(4-(hydroxycarbamoyl)benzyl)morpholine-4-carboxamido)phenyl)piperidine-1-carboxylate]
349	2.5	O=C(NO)c1ccc(CN(C(=O)N2CCOCC2)c2ccc(OC(F)(F)F)cc2)cc1 [Compound 772, N-(4-(hydroxycarbamoyl)benzyl)-N-(4-(trifluoromethoxy)phenyl)morpholine-4-carboxamide]
6430	11	O=C(NO)c1ccc(CN(C(=O)N2CCOCC2)c2cccc(C(F)(F)F)n2)cc1 [Compound 778, N-(4-(hydroxycarbamoyl)benzyl)-N-(6-(trifluoromethyl)pyridin-2-yl)morpholine-4-carboxamide]
257	5	CN(C)c1ccc(-c2cccc(N(Cc3ccc(C(=O)NO)cc3)C(=O)N3CCOCC3)c2)cn1 [Compound 396, N-(3-(6-(dimethylamino)pyridin-3-yl)phenyl)-N-(4-(hydroxycarbamoyl)benzyl)morpholine-4-carboxamide]
2370	3	O=C(NO)c1ccc(CN(C(=O)N2CCCCC2)c2cccc(C(F)(F)F)c2)cc1 [Compound 460, N-(4-(hydroxycarbamoyl)benzyl)-N-(3-(trifluoromethyl)phenyl)piperidine-1-carboxamide]
> 10000	64.5	O=C(NO)c1ccc(CN(C(=O)N2CCOCC2)c2ccccc2OC(F)(F)F)cc1 [Compound 771, N-(4-(hydroxycarbamoyl)benzyl)-N-(2-(trifluoromethoxy)phenyl)morpholine-4-carboxamide]
1260	5	O=C(NO)c1ccc(CN(C(=O)N2CCOCC2)c2ccccn2)cc1 [Compound 280, N-(4-(hydroxycarbamoyl)benzyl)-N-(pyridin-2-yl)morpholine-4-carboxamide]
75	2	O=C(NO)c1ccc(CN(C(=O)N2CCOCC2)c2cccc(-c3ccc4[nH]ccc4c3)c2)cc1 [Compound 263, N-(3-(1H-indol-5-yl)phenyl)-N-(4-(hydroxycarbamoyl)benzyl)morpholine-4-carboxamide]
190	2	O=C(NO)c1ccc(CN(C(=O)N2CCOCC2)c2cccc(-c3ccc4c(c3)OCO4)c2)cc1 [Compound 418, N-(3-(benzo[d][1,3]dioxol-5-yl)phenyl)-N-(4-(hydroxycarbamoyl)benzyl)morpholine-4-carboxamide]
1270	3	O=C(NO)c1ccc(CN(C(=O)N2CCCCC2)c2ccc(F)c(Cl)c2)cc1 [Compound 456, N-(3-chloro-4-fluorophenyl)-N-(4-(hydroxycarbamoyl)benzyl)piperidine-1-carboxamide]
765	4.6	O=C(NO)c1ccc(CN(C(=O)N2CCN(CC3(O)CCOCC3)CC2)c2cccc(C(F)(F)F)c2)cc1 [Compound 651, 4-((4-hydroxy-tetrahydro-2H-pyran-4-yl)methyl)-N-(4-(hydroxycarbamoyl)benzyl)-N-(3-(trifluoromethyl)phenyl)piperazine-1-carboxamide]
